According to paper PMC7663372, “Brain Distribution of Dual ABCB1/ABCG2 Substrates Is Unaltered in a Beta-Amyloidosis Mouse Model” (International Journal of Molecular Sciences, 2020):
Like-named read-outs stand apart in the source and are kept apart here.

Columns and labels:
[1] = test system: ABCG2; set-up: method as in PMID 26940368; settings: read-out: IC50 for in vitro inhibition of its own transport by ABCG2; cited from earlier work
[2] = test system: ABCB1; set-up: method as in PMID 26940368; settings: read-out: IC50 for in vitro inhibition of its own transport by ABCB1; cited from earlier work
[3] = test system: ABCB1 at the BBB; settings: cited from earlier work
[4] = test system: ABCB1; settings: cited from earlier work
[5] = target: T1, ABCG2 at the mouse BBB (Mus musculus, UniProt Q7TMS5); settings: for percentage increase in Kp,brain following ABCG2 inhibition: Ko143 5 mg/kg vs vehicle, tariquidar 12 mg/kg, hippocampus, cortex; for change in Kp,brain after partial ABCG2 inhibition: Ko143 5 mg/kg
T1 sequence (Q7TMS5 1-657): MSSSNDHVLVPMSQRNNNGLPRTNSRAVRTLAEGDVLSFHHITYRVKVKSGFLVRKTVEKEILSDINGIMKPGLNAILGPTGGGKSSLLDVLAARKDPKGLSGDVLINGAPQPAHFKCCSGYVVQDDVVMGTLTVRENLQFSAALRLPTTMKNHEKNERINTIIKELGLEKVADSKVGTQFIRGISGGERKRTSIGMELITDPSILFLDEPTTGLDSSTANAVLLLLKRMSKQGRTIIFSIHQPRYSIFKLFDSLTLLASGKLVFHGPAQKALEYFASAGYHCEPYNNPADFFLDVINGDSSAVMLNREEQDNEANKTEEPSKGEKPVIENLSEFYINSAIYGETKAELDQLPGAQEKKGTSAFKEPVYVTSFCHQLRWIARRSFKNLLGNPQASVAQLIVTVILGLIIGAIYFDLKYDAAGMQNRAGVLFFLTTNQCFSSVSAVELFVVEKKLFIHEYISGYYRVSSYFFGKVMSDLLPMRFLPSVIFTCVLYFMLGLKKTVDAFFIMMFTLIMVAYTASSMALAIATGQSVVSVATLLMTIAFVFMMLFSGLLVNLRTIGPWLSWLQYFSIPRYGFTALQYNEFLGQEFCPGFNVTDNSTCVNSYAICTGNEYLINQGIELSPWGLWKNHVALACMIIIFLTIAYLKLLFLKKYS

[6] = target: T1, ABCG2 at the mouse BBB; set-up: Two PET imaging approaches for assessing the activity of ABCG2 at the mouse BBB were performed; from tissue; host or cells: blood-brain barrier (brain capillary endothelium) of living female APP/PS1-21 and wild-type C57BL/6J mice; method as in PMID 22828996; settings: Abcb1a/b(-/-) mice pretreated with 15 mg/kg Ko143; cited from earlier work
[7] = test system: ABCB1; settings: cited from earlier work; remark: listed apart in the source

Structure (SMILES): COc1cc2c(cc1OC)CN(CCc1ccc(NC(=O)c3cc(OC)c(OC)cc3NC(=O)c3cnc4ccccc4c3)cc1)CC2 [tariquidar]
- IC50 [1]: 0.31 µM
- IC50 [2]: 0.0171 µM

Structure (SMILES): CNC(=O)C(CCN1CCC(O)(c2ccc(Cl)cc2)CC1)(c1ccccc1)c1ccccc1 [[^11C]N-desmethyl-loperamide]
- increase in brain distribution relative to wild-type mice ([3]; heterozygous Abcb1a/b(+/-) knockout mice): 1.1 fold
- increase in brain distribution relative to wild-type mice ([3]; homozygous Abcb1a/b(-/-) knockout mice): 2.8 fold

Structure (SMILES): CN(C)C(=O)C(CCN1CCC(O)(c2ccc(Cl)cc2)CC1)(c1ccccc1)c1ccccc1 [loperamide]
- change in brain distribution in triple transgenic AD mice (APPswe, PS-1M146V, tauP301L) [4]: no changes

Structure (SMILES): COc1cc2c(cc1OC)CN(CCc1ccc(NC(=O)c3cc(OC)c(OC)cc3NC(=O)c3cnc4ccccc4c3)cc1)CC2 [[^11C]tariquidar]
- percentage increase in Kp,brain following ABCG2 inhibition ([5]; APP/PS1-21 mice, cerebellum): 36–52%
- change in Kp,brain after partial ABCG2 inhibition ([5]; cerebellum, APP/PS1-21 mice): significantly increased
- change in Kp,brain after partial ABCG2 inhibition ([5]; cerebellum, wild-type mice): not in wild-type mice
- change in Kp,brain after partial ABCG2 inhibition ([5]; hippocampus and cortex, both mouse strains): significantly higher
- percentage increase in Kp,brain following ABCG2 inhibition ([5]; wild-type mice, cerebellum): 26–41%
- maximum brain uptake, Kp,brain [6]: approximately 15

Structure (SMILES): Cc1nc2n(c(=O)c1CCN1CCC(c3noc4cc(F)ccc34)CC1)CCCC2O (stereo not drawn) [paliperidone]
- difference in Kp,uu,brain between tg-APPArcSwe and age-matched control mice [7]: no differences
